The results in this text go back to ChEMBL document CHEMBL1121759, “Aporphines, 36. Dopamine receptor interactions of trihydroxyaporphines. Synthesis, radioreceptor binding, and striatal adenylate cyclase stimulation of 2,10,11-trihydroxyaporphines in comparison with other hydroxylated aporphines” (J Med Chem, 1981).

The source made the active and inactive calls. No cut-off for these calls is given here.

One assay has as its target T1, Adenylate cyclase (Rattus norvegicus) (UniProt D4A3N4+P26770+Q04400+P26769+Q03343+P40146+Q8CFM9+P21932). The assay is described as follows: Dopamine sensitive adenylate cyclase activity (stimulation) in homogenates of rat brain striatal tissue was assessed at 50 uM of compound; Inhibitis the cyclase activity. It is filed as tissue-based.
For the molecule `Oc1ccc2c(c1O)-c1cccc3c1[C@@H](C2)N(CCCl)CC3`, the Stimulation entry was “inactive”.

Another assay has as its target T1, Adenylate cyclase (Rattus norvegicus). The assay is described as follows: Dopamine sensitive adenylate cyclase activity (stimulation) in homogenates of rat brain striatal tissue was assessed at 50 uM of compound; ++ = 41-60% incresae of cAMP above basal activity. In kind it is tissue-based.
Take `CN1CCc2cc(O)cc3c2[C@H]1Cc1ccc(O)c(O)c1-3`: the Stimulation result is “Active”.
The same measure, in the same setting: the result for `CCCN1CCc2cccc3c2[C@H]1Cc1ccc(O)c(O)c1-3` (stereo in doubt; 1c) reads “Active”.

For the next assay the target is unchanged. The assay is described as follows: Dopamine sensitive adenylate cyclase activity (stimulation) in homogenates of rat brain striatal tissue was assessed at 50 uM; + = <40% increase of cAMP above basal activity. It is filed as tissue-based.
`CN1CCc2cccc3c2C1Cc1ccc(O)cc1-3` (stereo not drawn): the Stimulation result is “Partially active”.
With `CCCN1CCc2cc(O)cc3c2[C@H]1Cc1ccc(O)c(O)c1-3`, the Stimulation result was “Partially active”.
Take `CCN1CCc2cc(O)cc3c2[C@H]1Cc1ccc(O)c(O)c1-3`: the Stimulation result is “Partially active”.
Same read-out and setting: the result for `Oc1cc2c3c(c1)-c1c(ccc(O)c1O)C[C@H]3NCC2` reads “Partially active”; that for `CCCN1CCc2cccc3c2[C@H]1Cc1cccc(O)c1-3`, “Partially active”.
The same measure, in the same setting: the value for `C#CCN1CCc2cc(O)cc3c2[C@H]1Cc1ccc(O)c(O)c1-3` was “Partially active”; that for `OCCN1CCc2cccc3c2[C@H]1Cc1ccc(O)c(O)c1-3` was “Partially active”; that for `C=CCN1CCc2cc(O)cc3c2[C@H]1Cc1ccc(O)c(O)c1-3` was “Partially active”.

Another assay shares this target. The assay is described as follows: Dopamine sensitive adenylate cyclase activity (stimulation) in homogenates of rat brain striatal tissue was assessed at 50 uM of compound; +++ = 61-80% incresae of cAMP above basal activity. In kind it is tissue-based.
Turning to `CN1CCc2cccc3c2[C@H]1Cc1ccc(O)c(O)c1-3`, the Stimulation result is “Partially active”.
On to `CCCN1CCc2cccc3c2[C@H]1Cc1ccc(O)c(O)c1-3` (stereo in doubt; 1b), for which the Stimulation entry is “Partially active”.
